Results taken from patent publication US20240252463A1, “METHODS OF TREATING FIBROTIC PATHOLOGIES” (Mayo Foundation for Medical Education and Research, priority 2018, published 2024).
Where a name gives a salt, the structure may show the parent alone. Read-outs that look alike come from different tables or passages of the source. Where no end group is shown, it is not given here.

Experiments:
Type in all cases: cell-based, human
YAP/TAZ [1] = test: YAP/TAZ nuclear localization in IMR-90 and other mesenchymal cells (cardiac, dermal fibroblasts, hepatic stellate cells); details: for YAP/TAZ nuclear localization: fibroblasts on stiff matrix (plastic), IMR-90 cells treated 2 hours (FIG. 2a); for YAP/TAZ nuclear localization in confluent fibroblasts, ligand alone: ET-1 100 nM, LPA 10 μM, 5-HT 1 μM, 2 hours (FIG. 2c)
Method: FIGS. 2A-2E Dopamine Receptor D1 agonism blocks YAP/TAZ nuclear localization. 2a. Selective agonists of dopamine receptor D1 with varying efficacy inhibit YAP/TAZ nuclear localization; this effect can be overcome by treatment with a DRD1 receptor antagonist (SCH 39166, 3 μM), (Dihydrexidine, 10 μM). IMR-90 cells treated 2 hours prior to fixation. N=4 (****p<0.0001 vs. 0.1% DMSO vehicle control). Scale bar represents 100 μm. 2b. Consistent with DRD1 expression, DHX inhibits YAP/TAZ only in fibroblasts (IPF-FBs) but not in epithelial (NHEpCs) or endothelial (NHMVECs) cells. N=4 (****p<0.0001 vs. 0.1% DMSO vehicle control) 2c. YAP/TAZ localization is induced through multiple ligands which stimulate receptors coupled to Galphαi/q/12, endothelin 1 (ET-1: 100 nM), lysophosphatidic acid (LPA: 10 μM), and serotonin (5-HT: 1 μM). In each case DHX treatment (10 μM) can reverse this effect on YAP/TAZ. IMR-90 cells plated densely onto plastic cell culture plates for 24 hours in media containing 0.1% FBS, treated for 2 hours prior to fixation. N=4 (****p<0.0001 vs. 0.1% DMSO vehicle control), (++++p<0.0001 vs. the respective stimulated agonist ET-1, LPA, or 5-HT). Scale bar represents 100 μm. 2d. cAMP measured in IPF patient-derived fibroblasts treated for 20 minutes with DHX (10 μM)+/−SCH 39166 (3 μM). N=3 (**p<0.01 vs. 0.1% DMSO vehicle control). 2e. Phosphorylation of YAP by Rho-kinase inhibitor Y27632 (20 μM), direct cAMP stimulator Forskolin (10 μM), or DHX (10 μM). IMR-90 cells cultured for 24 hours in media containing 0.1% FBS, treated 2 hours prior to fixation. N=3 (***p<0.001 vs. 0.1% DMSO vehicle control).
FIGS. 6A-6C DHX inhibits YAP/TAZ localization in fibroblasts from multiple tissues. 6a. Mesenchymal cells derived from lung (IMR-90 and IPF-FBs) hepatic stellate cells (HSC), human adult cardiac fibroblasts, (HACF) and human dermal fibroblasts (HDF) were plated densely (Confluent) or sparsely (Control and all remaining conditions) onto plastic cell culture plates for 24 hours in media containing 0.1% FBS, treated for 2 hours with Rho kinase inhibitor Y27632, adenylate cyclase activator forskolin and DHX. N=4, Cells that were positive for nuclear YAP/TAZ were quantified by automated image analysis. 6b. Time course for DHX inhibition of YAP/TAZ nuclear localization. IMR-90 cells, N=3 (***p<0.001 vs. 0.1% DMSO vehicle control). 6c. […] N=3.
(§1) ImmunofluorescenceMicroscopy: Cells were plated into 96 well plates (Corning 3603) in their specific growth media and allowed to attach (8 hours). Media was then exchanged for the indicated conditions for each experiment. Cells were fixed in 3.7% formalin (Sigma-Aldrich), permeabilized in 0.25% Triton X-100 (Sigma-Aldrich) and then blocked with 1% BSA for 1 h. Cells or tissue sections were incubated overnight with mouse monoclonal antibody against αSMA (Sigma-Aldrich F3777), and/or a rabbit monoclonal antibody against YAP/TAZ (Cell Signaling D24E4) diluted 1:200 in PBS with 1% BSA. Cells were then washed and exposed to flourescence-conjugated secondary antibodies (Invitrogen) diluted 1:1000 and DAPI (Thermo Fisher Scientific). Images were taken with a Cytation5 (BioTek) microscope. For scoring αSMA positive cells (FIG. 3b), an observer blinded to the treatment conditions counted αSMA-positive cells using a visual threshold for bright fibrous staining; a minimum of 200 cells was counted for each condition. YAP/TAZ localization was quantified (FIG. 2, 6, 8) using Gen5 (Biotek) software. Images were taken at 4× magnification of both DAPI and YAP/TAZ staining. […] Quantification of double positive (YAP/TAZ and αSMA) cells from lung tissue sections (FIG. 4d) was performed similarly; however separate thresholds were established for both YAP/TAZ and αSMA. A minimum of 4000 cells was quantified for each mouse.

αSMA = αSMA intensity (fibroblast activation) in IPF patient-derived lung fibroblasts + TGFβ; details: 1 μM + TGFβ, treated for 72 hours; for activity at 1 µM: Homo sapiens, SMA
Method: as §1

YAP/TAZ [2] = test: YAP/TAZ nuclear localization (immunofluorescence, automated imaging) in IPF patient-derived lung fibroblasts; details: 10 μM, treated 2 hours prior to fixation; for Nuclear localization (% of total cells) IPF-1: patient sample IPF-1; for Nuclear localization (% of total cells) IPF-2: patient sample IPF-2; for Nuclear localization (% of total cells) IPF-3: patient sample IPF-3; for Nuclear localization (% of total cells) IPF-4: patient sample IPF-4
Method: 27A. […] IPF patient-derived lung fibroblasts cells treated 2 hours prior to fixation with diverse dopaminergic agonists (10 μM). N=4 different patient samples. % nuclear localization of YAP/TAZ was determined using automated imaging software. Scale bar represents 100 μm. 27C. cAMP measured in IPF patient-derived fibroblasts treated for 20 minutes with DHX. N=3. 27E.
as §1

[3] = patient sample IPF-1, read-out: αSMA intensity (% of DMSO control) IPF-1
[4] = patient sample IPF-2, read-out: αSMA intensity (% of DMSO control) IPF-2
[5] = patient sample IPF-3, read-out: αSMA intensity (% of DMSO control) IPF-3
[6] = patient sample IPF-4, read-out: αSMA intensity (% of DMSO control) IPF-4

Molecule	YAP/TAZ nuclear localization (YAP/TAZ [1])	YAP/TAZ nuclear localization in confluent fibroblasts, ligand alone (YAP/TAZ [1])	potency of inhibition of YAP/TAZ nuclear localization, normal lung fibroblasts vs IPF-derived (YAP/TAZ [1]; FIG. 6c)	activity at 1 µM (αSMA; [3])	activity at 1 µM (αSMA; [4])	activity at 1 µM (αSMA; [5])	activity at 1 µM (αSMA; [6])	Nuclear localization (% of total cells) IPF-1 (YAP/TAZ [2])	Nuclear localization (% of total cells) IPF-2 (YAP/TAZ [2])	Nuclear localization (% of total cells) IPF-3 (YAP/TAZ [2])	Nuclear localization (% of total cells) IPF-4 (YAP/TAZ [2])	αSMA intensity (% of DMSO control) IPF-1 (αSMA; patient sample IPF-1)	αSMA intensity (% of DMSO control) IPF-2 (αSMA; patient sample IPF-2)	αSMA intensity (% of DMSO control) IPF-3 (αSMA; patient sample IPF-3)	αSMA intensity (% of DMSO control) IPF-4 (αSMA; patient sample IPF-4)
Oc1cc2c(c(Cl)c1O)CCNCC2c1ccccc1 (stereo not shown) [SKF-81297]	reduced nuclear localization of YAP/TAZ	–	–	–	–	–	–	–	–	–	–	–	–	–	–
lysophosphatidic acid	–	enhance YAP/TAZ nuclear localization	–	–	–	–	–	–	–	–	–	–	–	–	–
CCCCC[C@H](O)/C=C/[C@H]1[C@H](O)CC(=O)[C@@H]1C/C=C\CCCC(=O)O [PGE2, Prostaglandin E2]	–	–	reduced potency	–	–	–	–	–	–	–	–	–	–	–	–
Oc1ccc(C2CNCCc3c2cc(O)c(O)c3Cl)cc1 (stereo not shown) [Fenoldopam•HCl, Fenoldopam]	reduced nuclear localization of YAP/TAZ	–	–	77.3%	45.3%	69.4%	63.4%	–	–	–	–	–	–	–	–
Br.CCCN1CCc2cc(O)cc3c2[C@H]1Cc1ccc(O)c(O)c1-3 [R(−)-2,10,11-Trihydroxy-N-propyl-noraporphine]	–	–	–	–	–	–	–	32.87 % of total cells	35.25 % of total cells	37.7 % of total cells	25.36 % of total cells	4.895 % of DMSO control	8.436 % of DMSO control	2.988 % of DMSO control	25.61 % of DMSO control
endothelin-1: GPCR ligand implicated in promotion of fibrosis (CSCSSLMDKECVYFCHLDIIW; ends and bridges not checked; cysteine pairing not given here; UniProt P05305 53-73, looked up)	–	enhance YAP/TAZ nuclear localization	–	–	–	–	–	–	–	–	–	–	–	–	–
NCCc1cccc(O)c1 [3-Hydroxyphenethylamine•HCl, 3-Hydroxyphenethylamine]	–	–	–	88.6%	96.7%	82.6%	99.8%	48.96 % of total cells	56.92 % of total cells	69.25 % of total cells	58.37 % of total cells	–	–	–	–
CCCN(CCC)CCc1ccc(O)c(O)c1 [Dipropyldopamine•HBr, Dipropyldopamine]	–	–	–	–	–	–	–	69.18 % of total cells	74.36 % of total cells	65.5 % of total cells	51.82 % of total cells	48.72 % of DMSO control	28.11 % of DMSO control	40.34 % of DMSO control	25.86 % of DMSO control
Br.C=CCN1CCc2c(cc(O)c(O)c2Br)[C@@H](c2ccccc2)C1 [R(+)-6-BROMO-APB•HBr, R(+)-6-bromo-APB]	–	–	–	–	–	–	–	28.37 % of total cells	38 % of total cells	36 % of total cells	25.65 % of total cells	11.25 % of DMSO control	2.507 % of DMSO control	0.8506 % of DMSO control	22.82 % of DMSO control
CNCCc1ccc(O)c(O)c1 [N-Methyldopamine•HCl, N-Methyldopamine]	–	–	–	43.2%	17.7%	29%	14.7%	43.16 % of total cells	46.73 % of total cells	60.11 % of total cells	70.44 % of total cells	–	–	–	–
(R)-(−)-Apomorphine [(R)-(−)-Apomorphine•HCl]	–	–	–	–	–	–	–	29.21 % of total cells	31.97 % of total cells	27.47 % of total cells	17.86 % of total cells	7.067 % of DMSO control	1.173 % of DMSO control	0.9618 % of DMSO control	33.67 % of DMSO control
NCCc1c[nH]c2ccc(O)cc12 [serotonin]	–	enhance YAP/TAZ nuclear localization	–	–	–	–	–	–	–	–	–	–	–	–	–
CCCN1CCO[C@@H]2c3cc(O)ccc3OC[C@H]21.Cl (racemic) [(±)-PD 128,907•HCl]	–	–	–	–	–	–	–	60.13 % of total cells	49.54 % of total cells	78.48 % of total cells	60.66 % of total cells	83.68 % of DMSO control	85.45 % of DMSO control	94.2538 % of DMSO control	75.15 % of DMSO control
C=CCN1CCc2nc(N)sc2CC1.Cl.Cl [B-HT 920•2HCl]	–	–	–	–	–	–	–	75.68 % of total cells	46.9 % of total cells	64.79 % of total cells	76.24 % of total cells	74.98 % of DMSO control	58.97 % of DMSO control	70.12 % of DMSO control	54.23 % of DMSO control
CN1Cc2ccccc2C2c3cccc4[nH]cc(c34)CC21 (stereo not shown) [CY 208-243]	–	–	–	21%	2.28%	2.61%	9.64%	20.52 % of total cells	39.79 % of total cells	41.17 % of total cells	19.82 % of total cells	–	–	–	–
